From patent publication US10647677B2, “Analogues of hydroxychloroquine (HCQ) without retinal toxicity” (Inoviem Scientific, priority 2015, dated 2020) come the findings set out here.

Read-outs that look alike come from different tables or passages of the source.

By Kd is commonly meant a measure of binding affinity in units of concentration.

One test addresses T1, myeloperoxidase (MPO) (Homo sapiens, UniProt P05164).
T1 construct: purchased
T1 sequence (P05164 49-745): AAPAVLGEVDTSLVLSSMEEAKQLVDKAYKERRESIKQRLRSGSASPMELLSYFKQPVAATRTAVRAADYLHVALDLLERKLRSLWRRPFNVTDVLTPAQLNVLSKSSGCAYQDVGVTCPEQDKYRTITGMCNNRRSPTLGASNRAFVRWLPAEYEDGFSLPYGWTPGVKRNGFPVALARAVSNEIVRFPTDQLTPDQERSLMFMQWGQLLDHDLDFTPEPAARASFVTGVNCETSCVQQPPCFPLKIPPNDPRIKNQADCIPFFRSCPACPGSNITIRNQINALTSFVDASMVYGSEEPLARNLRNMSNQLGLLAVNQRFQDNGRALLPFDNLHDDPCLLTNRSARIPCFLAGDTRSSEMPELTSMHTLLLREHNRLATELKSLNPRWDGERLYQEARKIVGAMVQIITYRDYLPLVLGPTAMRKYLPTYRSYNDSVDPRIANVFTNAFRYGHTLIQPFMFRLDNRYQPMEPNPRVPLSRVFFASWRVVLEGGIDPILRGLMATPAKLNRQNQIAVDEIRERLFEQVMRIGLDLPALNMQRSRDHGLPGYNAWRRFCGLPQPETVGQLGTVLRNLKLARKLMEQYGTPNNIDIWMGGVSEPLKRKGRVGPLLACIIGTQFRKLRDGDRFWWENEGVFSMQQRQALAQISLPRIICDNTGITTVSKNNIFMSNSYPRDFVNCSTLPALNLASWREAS
The experiment in a line: Surface plasmon resonance (Biacore 3000) affinity on MPO. Type of test: binding. To be noted: SPR at 25° C. The protocol:
(§1) Using the surface plasmon resonance technology (Biacore 3000), the interaction constants between HCQ analogues (HCQa) and myeloperoxidase (MPO) targets and αB-crystalline (αB-C) were measured at 25° C. according to 12 different series of experiments. First, HCQ analogues at five different concentrations (10^−6 to 10^−8 M) were injected at a rate of 10^−6 L/min for 250 s on the MPO and αB-C targets as well as on the ERK1 and ERK2 controls, followed by a dissociation phase of 150 s.
(§2) The kinetic parameters were measured using the BIAevaluation 4.1 software. The set of resonance unit values obtained with the controls were subtracted from those obtained with MPO and αB-C to compensate for non-specific bonds.
(§3) The differences in Kd values for the myeloperoxidase (MPO) and αB-crystalline (αB-C) enzymes in Tables 1 and 2 are due to the variability of commercial batches. Nevertheless, the difference between the Kd of the compounds HCQ and CB137 remains identical according to these two tests.
(§4) Analysis of the compounds in the form of sulphate salts according to the method described above: […]
(In general: In SPR one partner is held on a chip, and binding of the other changes the refractive index at the surface.)

In another test the target is T2, αB-crystalline (αB-C) (Homo sapiens, UniProt P02511).
T2 construct: purchased
T2 sequence (P02511 1-175): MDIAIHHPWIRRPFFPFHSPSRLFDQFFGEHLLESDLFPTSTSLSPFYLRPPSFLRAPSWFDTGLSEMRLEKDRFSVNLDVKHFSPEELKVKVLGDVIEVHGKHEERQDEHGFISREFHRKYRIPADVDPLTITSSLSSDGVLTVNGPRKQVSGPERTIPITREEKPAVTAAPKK
The experiment in a line: Surface plasmon resonance (Biacore 3000) affinity on αB-crystalline. Type of test: binding. To be noted: SPR at 25° C.; for Kd: read-out: Kd (M) on crystallin. Here is the method:
as §1, §2, §3, §4

The mark [1] stands for this setting: Table 2, compounds in the form of sulphate salts.

Turning to `CCN(CCO)CCCC(C)Nc1ccnc2cc(Cl)ccc12` (single isomer, unassigned) [CB133], the Kd is 0.711 µM on myeloperoxidase (MPO) (Table 1) and 2.19e-09 M on αB-crystalline (αB-C) (Table 1).
Turning to `CCN(CCO)CCCC(C)Nc1c(C#N)cnc2cc(Cl)ccc12` (stereo not drawn) [CB029], the Kd was 0.071 µM at myeloperoxidase (MPO) (Table 1) and 3.5e-08 M at αB-crystalline (αB-C) (Table 1).
The corresponding values for `CCN(CCO)CCCC(C)Nc1c(C(=O)C2CC2)cnc2cc(Cl)ccc12` (stereo not drawn) [CB103] are 0.036 µM and 6.6e-07 M.
The corresponding values for `CCN(CCO)CCCC(C)Nc1c(C(=O)C(F)(F)F)cnc2cc(Cl)ccc12` (stereo not drawn) [CB114] are 0.06 µM and 2.2e-05 M.
At myeloperoxidase (MPO) (Table 1), `CCOC(=O)c1cnc2cc(Cl)ccc2c1NC(C)CCCN(CC)CCO` (stereo not drawn) [NT36F9] displayed a Kd of 0.0075 µM. Further, the “Kd (M) on crystallin” value at αB-crystalline (αB-C) (Table 1) is “Kd not measurable because below the detection threshold”.
As to `CCN(CCO)CCCC(C)Nc1c(Cl)cnc2cc(Cl)ccc12` (stereo not drawn) [CB072], the dissociation constant Kd was determined as 0.0011 µM at myeloperoxidase (MPO) (Table 1) and 1.6e-07 M at αB-crystalline (αB-C) (Table 1).
With `CCN(CCO)CCCC(C)Nc1c(C(F)(F)F)cnc2cc(Cl)ccc12` (stereo not drawn) [CB108], the values for the Kd on myeloperoxidase (MPO) (Table 1) and at αB-crystalline (αB-C) (Table 1) were 0.014 µM and 8.1e-07 M, respectively.
For the compound `C#CCOCc1cnc2cc(Cl)ccc2c1NC(C)CCCN(CC)CCO` (stereo not drawn) [NT69], the “Kd (M) on crystallin” value on αB-crystalline (αB-C) (Table 1) is reported as “Kd not measurable because below the detection threshold”.
For `CCN(CCO)CCCC(C)Nc1ccnc2c(Cl)c(Cl)ccc12` (stereo not drawn) [CB317], the Kd at myeloperoxidase (MPO) (setting [1]) is 9 µM.
In the case of `CCN(CCO)CCCC(C)Nc1ccnc2cc(Cl)cc(Cl)c12` (stereo not drawn) [CB300], the dissociation constant Kd at myeloperoxidase (MPO) (setting [1]) was 4 µM; at αB-crystalline (αB-C) (setting [1]), 0.0002 M.
Regarding `CCN(CCO)CCC[C@@H](C)Nc1ccnc2cc(Cl)cc(Cl)c12` [CB321 R-enantiomer], the Kd at myeloperoxidase (MPO) (setting [1]) was found to be 7 µM; on αB-crystalline (αB-C) (setting [1]) it was 1e-05 M.
The corresponding values for `CCN(CCO)CCC[C@@H](C)Nc1c(Cl)cnc2cc(Cl)ccc12` [CB323 R-enantioer] are 0.09 µM and 0.0002 M.
The corresponding values for `CCN(CCO)CCCC(C)Nc1c(C2CC2)cnc2cc(Cl)ccc12` (stereo not drawn) [CB341] are 5 µM and 2e-05 M.
